For data set [1], the target named is T1, Calcitonin receptor (Homo sapiens, UniProt P30988).
T1 sequence (P30988 whole entry): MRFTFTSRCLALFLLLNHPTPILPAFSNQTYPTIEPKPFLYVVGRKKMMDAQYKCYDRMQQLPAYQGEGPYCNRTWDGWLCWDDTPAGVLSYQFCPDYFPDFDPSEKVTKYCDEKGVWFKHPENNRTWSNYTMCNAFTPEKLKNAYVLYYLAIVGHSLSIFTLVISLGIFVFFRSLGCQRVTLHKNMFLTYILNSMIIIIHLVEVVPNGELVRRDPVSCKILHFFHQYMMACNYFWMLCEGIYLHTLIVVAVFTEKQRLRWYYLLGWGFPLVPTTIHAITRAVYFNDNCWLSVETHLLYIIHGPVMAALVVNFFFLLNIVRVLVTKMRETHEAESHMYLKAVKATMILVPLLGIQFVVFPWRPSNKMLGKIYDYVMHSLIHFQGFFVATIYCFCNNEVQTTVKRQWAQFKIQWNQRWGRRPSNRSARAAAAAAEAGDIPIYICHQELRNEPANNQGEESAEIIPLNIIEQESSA
Type of data set: cell membranes, Membrane. Conditions: t47d.

For data set [2], the target named is Melanocortin receptor 5 (Homo sapiens, UniProt P33032). Type of data set: cell membranes, HEK293, Membrane. The settings on record: for IC50: hek293.
Data set [3] concerns the target Mitogen-activated protein kinase 14 (Homo sapiens, UniProt Q16539). Set-up: species or system Escherichia coli.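 Further: inhibition of p38alpha enzyme activity in a biochemical kinase assay, with myelin basic protein serving as substrate.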
Data set [4] has as its target Tyrosine-protein kinase Fyn (Homo sapiens, UniProt P06241). Description: biochemical. It counts as cell-based, Insect cells. Conditions: insect cells.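 Further: enzymatic inhibition of Fyn kinase activity measured with Poly(Glu:Tyr) as the phosphorylation substrate.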
Data set [5] concerns the target T2, Receptor-type tyrosine-protein phosphatase C (Homo sapiens, UniProt P08575).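 Further: inhibition of CD45 enzyme activity measured using DiFMUP as substrate.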
T2 sequence (P08575 whole entry): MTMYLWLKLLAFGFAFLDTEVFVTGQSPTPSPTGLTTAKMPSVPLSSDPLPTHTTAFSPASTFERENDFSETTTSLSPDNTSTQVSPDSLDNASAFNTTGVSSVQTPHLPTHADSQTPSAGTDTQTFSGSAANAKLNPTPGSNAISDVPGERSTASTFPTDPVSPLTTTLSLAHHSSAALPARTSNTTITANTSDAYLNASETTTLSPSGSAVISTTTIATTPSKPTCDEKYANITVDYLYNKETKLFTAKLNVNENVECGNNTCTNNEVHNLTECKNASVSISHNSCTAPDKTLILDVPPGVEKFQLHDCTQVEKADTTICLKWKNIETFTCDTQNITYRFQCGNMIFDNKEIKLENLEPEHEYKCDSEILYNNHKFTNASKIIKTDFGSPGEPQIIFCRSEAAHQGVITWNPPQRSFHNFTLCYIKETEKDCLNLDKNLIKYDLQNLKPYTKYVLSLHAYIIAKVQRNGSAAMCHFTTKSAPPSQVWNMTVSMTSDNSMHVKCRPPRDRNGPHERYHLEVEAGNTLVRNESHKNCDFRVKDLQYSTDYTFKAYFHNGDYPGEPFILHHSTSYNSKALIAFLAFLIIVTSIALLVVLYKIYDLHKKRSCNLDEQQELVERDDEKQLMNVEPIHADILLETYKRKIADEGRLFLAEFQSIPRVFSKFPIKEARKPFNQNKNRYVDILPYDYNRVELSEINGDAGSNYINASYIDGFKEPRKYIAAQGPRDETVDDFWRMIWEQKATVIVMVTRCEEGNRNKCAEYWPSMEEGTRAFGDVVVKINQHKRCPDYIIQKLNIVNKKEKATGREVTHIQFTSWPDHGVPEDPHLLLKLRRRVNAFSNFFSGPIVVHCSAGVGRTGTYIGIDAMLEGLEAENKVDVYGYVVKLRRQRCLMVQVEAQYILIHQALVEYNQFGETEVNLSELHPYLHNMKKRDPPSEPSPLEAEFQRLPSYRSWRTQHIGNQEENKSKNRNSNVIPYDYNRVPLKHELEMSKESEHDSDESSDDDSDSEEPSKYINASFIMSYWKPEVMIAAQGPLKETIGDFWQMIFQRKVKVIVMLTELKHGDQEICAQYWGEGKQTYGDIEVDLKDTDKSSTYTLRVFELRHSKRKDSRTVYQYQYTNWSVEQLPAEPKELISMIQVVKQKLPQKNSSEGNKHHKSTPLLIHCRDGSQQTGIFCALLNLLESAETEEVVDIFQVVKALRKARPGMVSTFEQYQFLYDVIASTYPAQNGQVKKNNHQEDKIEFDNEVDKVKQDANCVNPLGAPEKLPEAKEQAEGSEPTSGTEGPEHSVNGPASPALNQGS
Details: species or system Escherichia coli.

Data set [6] deals with Voltage-gated inwardly rectifying potassium channel KCNH2 (Homo sapiens, UniProt Q12809). The settings on record: hek293.

The structures appear in SMILES notation. pIC50, pKi: −log10 of the molar value.
Further: in other assays of this panel Not Active means under 50% inhibition at 10 µM.

Chain of Mitogen-activated protein kinase 14 (Q16539 whole entry): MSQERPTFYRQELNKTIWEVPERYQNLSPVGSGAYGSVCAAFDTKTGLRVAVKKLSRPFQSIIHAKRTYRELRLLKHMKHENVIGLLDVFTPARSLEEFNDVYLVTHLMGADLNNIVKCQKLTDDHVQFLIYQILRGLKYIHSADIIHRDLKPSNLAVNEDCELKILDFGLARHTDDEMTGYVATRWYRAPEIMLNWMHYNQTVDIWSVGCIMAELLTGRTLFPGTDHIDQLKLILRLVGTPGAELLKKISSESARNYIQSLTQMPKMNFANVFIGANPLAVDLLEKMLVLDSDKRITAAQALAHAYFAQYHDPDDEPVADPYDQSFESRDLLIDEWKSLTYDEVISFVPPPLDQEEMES
Chain of Melanocortin receptor 5 (P33032 whole entry): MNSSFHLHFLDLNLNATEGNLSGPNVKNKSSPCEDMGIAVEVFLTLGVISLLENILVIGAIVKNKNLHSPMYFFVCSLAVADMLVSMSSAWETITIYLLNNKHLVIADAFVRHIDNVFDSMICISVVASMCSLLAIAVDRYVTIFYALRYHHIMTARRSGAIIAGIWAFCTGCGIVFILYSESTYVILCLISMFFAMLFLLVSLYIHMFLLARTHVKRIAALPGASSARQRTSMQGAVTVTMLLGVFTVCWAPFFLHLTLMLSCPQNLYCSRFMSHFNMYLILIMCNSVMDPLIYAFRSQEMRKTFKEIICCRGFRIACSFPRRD
Chain of Voltage-gated inwardly rectifying potassium channel KCNH2 (Q12809 whole entry): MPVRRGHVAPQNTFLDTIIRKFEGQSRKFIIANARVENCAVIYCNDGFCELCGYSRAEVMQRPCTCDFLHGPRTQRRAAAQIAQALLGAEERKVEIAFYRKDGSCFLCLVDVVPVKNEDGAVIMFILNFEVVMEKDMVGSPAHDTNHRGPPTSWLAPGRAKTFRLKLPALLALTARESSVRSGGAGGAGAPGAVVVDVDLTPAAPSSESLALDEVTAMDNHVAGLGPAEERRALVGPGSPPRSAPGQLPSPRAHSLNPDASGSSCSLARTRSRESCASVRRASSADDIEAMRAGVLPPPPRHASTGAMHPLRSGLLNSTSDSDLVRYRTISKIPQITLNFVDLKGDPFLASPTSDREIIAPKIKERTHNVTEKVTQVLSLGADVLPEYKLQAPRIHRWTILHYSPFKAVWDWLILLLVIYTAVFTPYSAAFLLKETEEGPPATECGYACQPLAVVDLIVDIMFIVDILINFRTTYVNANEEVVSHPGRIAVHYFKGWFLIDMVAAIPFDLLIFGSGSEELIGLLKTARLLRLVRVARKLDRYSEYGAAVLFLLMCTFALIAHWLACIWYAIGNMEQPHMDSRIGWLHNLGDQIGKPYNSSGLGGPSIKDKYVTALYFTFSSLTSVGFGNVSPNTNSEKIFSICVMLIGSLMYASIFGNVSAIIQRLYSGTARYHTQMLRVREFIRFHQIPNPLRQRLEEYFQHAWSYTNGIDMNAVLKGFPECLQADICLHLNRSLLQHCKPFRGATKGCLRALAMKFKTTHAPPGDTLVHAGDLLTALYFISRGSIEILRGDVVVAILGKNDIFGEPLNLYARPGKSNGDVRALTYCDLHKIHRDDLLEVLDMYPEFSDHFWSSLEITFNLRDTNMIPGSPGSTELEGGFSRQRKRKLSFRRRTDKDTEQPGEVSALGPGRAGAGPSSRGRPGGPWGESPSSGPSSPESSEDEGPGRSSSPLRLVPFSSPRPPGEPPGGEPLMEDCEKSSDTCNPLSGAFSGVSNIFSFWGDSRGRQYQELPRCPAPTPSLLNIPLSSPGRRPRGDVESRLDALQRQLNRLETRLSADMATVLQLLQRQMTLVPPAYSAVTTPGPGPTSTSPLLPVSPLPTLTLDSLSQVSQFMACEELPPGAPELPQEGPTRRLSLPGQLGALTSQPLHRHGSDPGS
Chain of Tyrosine-protein kinase Fyn (P06241 whole entry): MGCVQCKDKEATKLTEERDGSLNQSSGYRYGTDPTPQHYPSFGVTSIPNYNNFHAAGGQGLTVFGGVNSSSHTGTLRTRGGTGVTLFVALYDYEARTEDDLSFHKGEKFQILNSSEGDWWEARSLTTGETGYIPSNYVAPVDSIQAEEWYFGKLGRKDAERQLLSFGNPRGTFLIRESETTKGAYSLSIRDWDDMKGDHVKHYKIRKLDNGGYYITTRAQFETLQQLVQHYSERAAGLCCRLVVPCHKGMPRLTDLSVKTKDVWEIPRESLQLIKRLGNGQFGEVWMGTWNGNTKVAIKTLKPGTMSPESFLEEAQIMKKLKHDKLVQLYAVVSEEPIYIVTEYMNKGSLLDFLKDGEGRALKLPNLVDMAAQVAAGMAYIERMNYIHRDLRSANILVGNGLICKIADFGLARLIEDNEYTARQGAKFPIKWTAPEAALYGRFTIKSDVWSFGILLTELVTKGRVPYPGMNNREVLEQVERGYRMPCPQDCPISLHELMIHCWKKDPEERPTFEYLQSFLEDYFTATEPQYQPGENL

Consider `COc1ccc2cc3[n+](cc2c1OC)CCc1cc2c(cc1-3)OCO2.[Cl-]` [BERBERINE CHLORIDE], for which the IC50 result in data set [1], in data set [2], in data set [3], in data set [4], in data set [5] and in data set [6] was “Not Active” each time. In data set [6], the Ki entry is given as “Not Active”.

For the compound `O=C(O)CCNC(=O)c1ccccc1` [BETAMIPRON], the IC50 entry in data set [1], in data set [2], in data set [3], in data set [4], in data set [5] and in data set [6] was “Not Active” each time. Further, the Ki entry in data set [6] was “Not Active”.

Turning to `CC(=O)Oc1ccc(C(c2ccc(OC(C)=O)cc2)c2ccccn2)cc1` [BISACODYL], the IC50 entry in data set [1], in data set [2], in data set [3], in data set [4], in data set [5] and in data set [6] was “Not Active” throughout. Moreover, in data set [6], the Ki entry is listed as “Not Active”.

For the compound `Cc1cc2c(OCC(CNC(C)(C)C)OC(=O)c3ccccc3)cccc2[nH]1` (configuration not stated) [BOPINDOLOL], the IC50 entry in data set [1], in data set [2], in data set [3], in data set [4], in data set [5] and in data set [6] was “Not Active” each time. The Ki entry in data set [6] is on record as “Not Active”.

For the compound `Brc1c(NC2=NCCN2)ccc2nccnc12` [BRIMONIDINE], the IC50 entry in data set [1], in data set [2], in data set [3], in data set [4], in data set [5] and in data set [6] was “Not Active” in each case. Moreover, the Ki entry in data set [6] was “Not Active”.

On to `CN(C)[C@@H]1C(O)=C(C(N)=O)C(=O)[C@@]2(O)C(O)=C3C(=O)c4c(O)ccc(Cl)c4[C@@](C)(O)[C@H]3C[C@@H]12` [CHLORTETRACYCLINE], for which the IC50 entry in data set [1], in data set [2], in data set [3], in data set [4], in data set [5] and in data set [6] was “Not Active” each time. The Ki result in data set [6] is given as “Not Active”.

As for `CN/C(=N\CCSCc1nc[nH]c1C)NC#N` [CIMETIDINE], the IC50 result in data set [1], in data set [2], in data set [3], in data set [4], in data set [5] and in data set [6] was “Not Active” in each case. Moreover, in data set [6], the Ki result is “Not Active”.

With `CCC(=O)O[C@]1(C(=O)CCl)[C@@H](C)C[C@H]2[C@@H]3CCC4=CC(=O)C=C[C@]4(C)[C@@]3(F)[C@@H](O)C[C@@]21C` [CLOBETASOL PROPIONATE], the IC50 entry in data set [1], in data set [2], in data set [3], in data set [4], in data set [5] and in data set [6] was “Not Active” in each case. In addition, the Ki result in data set [6] is given as “Not Active”.

Take `O=C1CN=C(c2ccccc2Cl)c2cc([N+](=O)[O-])ccc2N1` [CLONAZEPAM]: the IC50 result in data set [1], in data set [2], in data set [3], in data set [4], in data set [5] and in data set [6] was “Not Active” throughout. Further, in data set [6], the Ki entry is given as “Not Active”.

Regarding `Nc1ccn([C@@H]2O[C@H](CO)[C@@H](O)[C@@H]2O)c(=O)n1` [CYTARABINE], the IC50 entry in data set [1], in data set [2], in data set [3], in data set [4], in data set [5] and in data set [6] was “Not Active” each time. Besides, the Ki entry in data set [6] is recorded as “Not Active”.

Turning to `C[C@@H]1C[C@H]2[C@@H]3CCC4=CC(=O)C=C[C@]4(C)[C@@]3(F)[C@@H](O)C[C@]2(C)[C@H]1C(=O)CO` [DESOXIMETASONE], the IC50 result in data set [1], in data set [2], in data set [3], in data set [4], in data set [5] and in data set [6] was “Not Active” each time. Also, the Ki entry in data set [6] was “Not Active”.

As for `C[C@@H]1C[C@H]2[C@@H]3CCC4=CC(=O)C=C[C@]4(C)[C@@]3(F)[C@@H](O)C[C@]2(C)[C@@]1(O)C(=O)CO` [DEXAMETHASONE], the IC50 entry in data set [1], in data set [2], in data set [3], in data set [4], in data set [5] and in data set [6] was “Not Active” each time. Besides, the Ki entry in data set [6] is given as “Not Active”.

For the compound `CN(C)CC[C@@H](c1ccc(Cl)cc1)c1ccccn1` [DEXCHLORPHENIRAMINE], the IC50 result in data set [1], in data set [2], in data set [3], in data set [4], in data set [5] and in data set [6] was “Not Active” in each case. For the same compound, the Ki entry in data set [6] is on record as “Not Active”.

In general, pIC50 refers to −log10 of the IC50, conventionally taken in molar units. For orientation: pKi means the Ki on a negative log10 scale, so that one unit is a factor of ten. On to `C[C@@H]1CC[C@@]2(OC1)O[C@H]1[C@@H](O)[C@H]3[C@@H]4CC[C@H]5C[C@@H](O[C@@H]6O[C@H](CO)[C@H](O[C@@H]7O[C@H](CO)C(O)[C@H](O[C@@H]8OC[C@@H](O)[C@H](O)[C@H]8O)[C@H]7O[C@@H]7O[C@H](CO)[C@H](O)[C@H](O[C@@H]8O[C@H](CO)[C@@H](O)[C@H](O)[C@H]8O)[C@H]7O)[C@H](O)[C@H]6O)[C@H](O)C[C@]5(C)[C@H]4CC[C@]3(C)[C@H]1[C@@H]2C` (some centres not stated) [DIGITONIN], for which the IC50 result in data set [1], in data set [3], in data set [4], in data set [5] and in data set [6] was “Not Active” in each case. For the same compound, the pIC50 in data set [2] (read-out: IC50) was 5.41. Also, in data set [2] (read-out: Ki), the pKi was 5.44. In addition, the Ki entry in data set [6] is “Not Active”.

`OC(CCCN1CCCCC1)(c1ccccc1)c1ccccc1` [DIPHENIDOL]: the IC50 entry in data set [1], in data set [2], in data set [3], in data set [4], in data set [5] and in data set [6] was “Not Active” throughout. The Ki entry in data set [6] is listed as “Not Active”.

For the compound `C[C@H]1O[C@@H](n2cc(F)c(=O)[nH]c2=O)[C@H](O)[C@@H]1O` [DOXIFLURIDINE], the IC50 entry in data set [1], in data set [2], in data set [3], in data set [4], in data set [5] and in data set [6] was “Not Active” each time. Besides, in data set [6], the Ki entry is “Not Active”.

Turning to `Cn1c(=O)c2c(ncn2CC(O)CO)n(C)c1=O` (configuration not stated) [DYPHYLLINE], the IC50 entry in data set [1], in data set [2], in data set [3], in data set [4], in data set [5] and in data set [6] was “Not Active” each time. In addition, the Ki entry in data set [6] is reported as “Not Active”.

`C[C@@H](CO)NC(=O)[C@@H]1C=C2c3cccc4[nH]cc(c34)C[C@H]2N(C)C1` [ERGONOVINE]: the IC50 result in data set [1], in data set [2], in data set [3], in data set [4], in data set [5] and in data set [6] was “Not Active” throughout. For the same compound, the Ki result in data set [6] is reported as “Not Active”.

For the origin of these results see ChEMBL document CHEMBL1909046, “DrugMatrix in vitro pharmacology data”.
